Laboratory results: article PMC4131899 (Biochemistry, 2014)
Where a chain is given by its changes, count along the chain named. Like-named read-outs stand apart in the source and are kept apart here.

What was measured:
P450 (CYP2B4) = assay: Binding of redox mediator dyes to P450; conditions: data not shown
CYP2B4 F429H [1] = target: T1, CYP2B4 F429H (Oryctolagus cuniculus, UniProt P00178, F429H); assay: biochemical
T1 sequence (P00178 1-491 F429H): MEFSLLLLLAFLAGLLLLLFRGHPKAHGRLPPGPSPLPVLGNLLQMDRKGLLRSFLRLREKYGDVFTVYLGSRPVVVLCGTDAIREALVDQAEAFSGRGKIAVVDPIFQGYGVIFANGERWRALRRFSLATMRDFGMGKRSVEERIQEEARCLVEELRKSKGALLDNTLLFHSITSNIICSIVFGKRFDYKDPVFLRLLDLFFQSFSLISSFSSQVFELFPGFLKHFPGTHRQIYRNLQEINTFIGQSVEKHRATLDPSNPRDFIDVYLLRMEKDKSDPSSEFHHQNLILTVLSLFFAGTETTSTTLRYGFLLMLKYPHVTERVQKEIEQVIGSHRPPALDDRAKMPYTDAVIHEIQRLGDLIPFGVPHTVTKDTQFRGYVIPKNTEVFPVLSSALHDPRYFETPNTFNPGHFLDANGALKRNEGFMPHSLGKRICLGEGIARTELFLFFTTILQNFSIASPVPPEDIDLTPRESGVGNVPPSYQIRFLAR

wild type (WT) CYP2B4 = target: T2, wild type (WT) CYP2B4 (Oryctolagus cuniculus, UniProt P00178); assay: Substrate binding
T2 sequence (P00178 1-491): T1 sequence (P00178 1-491 F429H) with H429F

WT CYP2B4 [2] = target: T3, WT CYP2B4 (Oryctolagus cuniculus, UniProt P00178); assay: N-demethylation of benzphetamine in purified reconstituted system; format: biochemical, rabbit; conditions: wild type; 1 mM benzphetamine, varied reductase
T3 sequence (P00178 1-491): T1 sequence (P00178 1-491 F429H) with H429F
T3 sequence (P00388 1-678 partner): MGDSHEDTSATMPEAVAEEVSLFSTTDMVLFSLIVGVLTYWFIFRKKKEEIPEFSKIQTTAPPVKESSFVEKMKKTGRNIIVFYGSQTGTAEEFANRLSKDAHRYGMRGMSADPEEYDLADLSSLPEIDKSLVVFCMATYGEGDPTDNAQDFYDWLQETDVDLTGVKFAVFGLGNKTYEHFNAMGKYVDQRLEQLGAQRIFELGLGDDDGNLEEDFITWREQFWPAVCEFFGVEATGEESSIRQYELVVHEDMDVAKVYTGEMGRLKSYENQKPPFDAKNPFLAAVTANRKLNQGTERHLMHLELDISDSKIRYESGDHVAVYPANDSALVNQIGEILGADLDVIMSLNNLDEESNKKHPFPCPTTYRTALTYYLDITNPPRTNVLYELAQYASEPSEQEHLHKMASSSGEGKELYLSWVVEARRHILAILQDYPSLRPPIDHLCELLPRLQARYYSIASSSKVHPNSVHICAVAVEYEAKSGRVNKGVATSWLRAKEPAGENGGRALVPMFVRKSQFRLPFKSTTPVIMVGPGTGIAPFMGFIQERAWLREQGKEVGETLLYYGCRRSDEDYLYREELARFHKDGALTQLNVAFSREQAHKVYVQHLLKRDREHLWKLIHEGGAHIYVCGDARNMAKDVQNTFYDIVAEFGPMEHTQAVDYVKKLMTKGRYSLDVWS

CYP2B4 F429H [3] = target: T1, CYP2B4 F429H
CYP2B4 F429H [4] = target: T4, CYP2B4 F429H (Oryctolagus cuniculus, UniProt P00178, F429H); remark: listed apart in the source
T4 sequence (P00178 1-491 F429H): T1 sequence (P00178 1-491 F429H)
T4 sequence (P00388 1-678 partner): T3 sequence (P00388 1-678 partner)

WT CYP2B4 [5] = target: T5, WT CYP2B4 (Oryctolagus cuniculus, UniProt P00178); conditions: 1 mM benzphetamine, 20 °C
T5 sequence (P00178 1-491): T1 sequence (P00178 1-491 F429H) with H429F

CYP2B4 F429H [6] = target: T1, CYP2B4 F429H; conditions: 1 mM benzphetamine, 20 °C

Nc1ccc2nc3ccc(N)cc3[n+](-c3ccccc3)c2c1.[Cl-] [phenosafranin]
spectral change on addition of dye to P450 (P450 (CYP2B4)): did not cause any spectral change

Cc1cc(C(C)(C)C)c(O)c(C(C)(C)C)c1 [butylated hydroxytoluene, 2,6-di-tert-butyl-4-methylphenol]
Kd (CYP2B4 F429H [1]): 1.82 ± 0.24 µM | Kd (wild type (WT) CYP2B4): 0.31 ± 0.14 µM

C[C@@H](Cc1ccccc1)N(C)Cc1ccccc1 [benzphetamine]
Vmax (N-demethylation of BP) (WT CYP2B4 [2]): 49 ± 5 nmol of product min^–1 (nmol of 450)^−1 | decreased affinity of mutant vs WT (CYP2B4 F429H [3]; 30 °C, F429H vs WT): 5 fold | enhancement of binding by cyt b5 (CYP2B4 F429H [3]; F429H, with vs without cyt b5): 5–6 fold | activity retained relative to wild type (N-demethylation of BP) (CYP2B4 F429H [4]; F429H vs wild type): 3.6% | Vmax (N-demethylation of BP) (CYP2B4 F429H [4]; F429H, 1 mM benzphetamine, varied reductase): 1.60 ± 0.05 nmol of product min^–1 (nmol of 450)^−1 | increase in Em on binding of benzphetamine (WT CYP2B4 [5]): 88 mV | redox potential Em with BP (WT CYP2B4 [5]; pH 7.4): –244 ± 7 mV | increase in Em on binding of benzphetamine (CYP2B4 F429H [6]): 15 mV | redox potential Em with BP (CYP2B4 F429H [6]; pH 7.4): –230 ± 8 mV | Kd (CYP2B4 F429H [1]; Ks, F429H, no reductase, no cyt b5, 15 °C): 900 ± 200 µM | Kd (CYP2B4 F429H [1]; Ks, F429H, no reductase, no cyt b5, 30 °C): 390 ± 80 µM | Kd (CYP2B4 F429H [1]; Ks, F429H, no reductase, with cyt b5, 15 °C): 150 ± 60 µM | Kd (CYP2B4 F429H [1]; Ks, F429H, with reductase, no cyt b5, 15 °C): 830 ± 220 µM | Kd (wild type (WT) CYP2B4; Ks, WT, no reductase, no cyt b5, 15 °C): 250 ± 7 µM | Kd (wild type (WT) CYP2B4; Ks, WT, no reductase, no cyt b5, 30 °C): 80 ± 20 µM | Kd (wild type (WT) CYP2B4; Ks, WT, no reductase, with cyt b5, 15 °C): 58 ± 6 µM | Kd (wild type (WT) CYP2B4; Ks, WT, with reductase, no cyt b5, 15 °C): 220 ± 10 µM

c1ccc(C[n+]2ccc(-c3cc[n+](Cc4ccccc4)cc3)cc2)cc1 [benzyl viologen]
spectral change on addition of dye to P450 (P450 (CYP2B4)): did not cause any spectral change
